Assay results: paper PMC7039006 (2020)
Each block holds one compound with its values, some of them ahead of it.

Columns and labels:
[1] = system: 5'-GGA overhang on iM7 (DNA, i motif) GGACCCCTTTCCC; assay: fluorescence enhancement; conditions: 2 mM MgCl2; TAE pH 5, 22°C; 1 μM DNA, 3 μM ThT
[2] = system: TiM7 (5'-TGGA-C4T3C3) (DNA, i motif) TGGACCCCTTTCCC; assay: CD melting at 290 nm; conditions: 2 mM MgCl2; TAE pH 5; 50 μM DNA, 150 μM ThT
[3] = system: TiM9 (TGGAC5T3C4) (DNA, i motif) TGGACCCCCTTTCCCC; assay: CD melting at 290 nm; conditions: 2 mM MgCl2; TAE pH 5; 50 μM DNA, 150 μM ThT
[4] = system: TiM7 (5'-TGGA-C4T3C3) (DNA, i motif) TGGACCCCTTTCCC; assay: fluorescence titration; conditions: 2 mM MgCl2; TAE pH 5, 22°C; 3 μM ThT titrated with DNA
[5] = system: 5'-GGA overhang on iM9 (DNA, i motif) GGACCCCCTTTCCCC; assay: fluorescence enhancement; conditions: 2 mM MgCl2; TAE pH 5, 22°C; 1 μM DNA, 3 μM ThT
[6] = system: iM9 (C5T3C4) (DNA, i motif) CCCCCTTTCCCC; assay: CD melting at 290 nm; conditions: 2 mM MgCl2; TAE pH 5; 50 μM DNA, 150 μM ThT; Tm stated unchanged
[7] = system: FNA-TiM9 (Th46/Th58 tetrahedron heterodimer tethered with TiM9) (DNA, other) TTCAGACGGAATGTGCTTCCCAAGTGTCGTTTGTATTGGCTCGCAT/TCAACTGGGTGATAAAACGACACTTGGGAATCTACTATGGCTCTTC/TATCACCCAGTTGACAGTGTAGCATGTAATAGATGCGAGCCAATAC/ACATTCCGTCTGAAACATTACATGCTACACGAGAAGAGCCATAGTATTTTTTTTATAAATAATTGGACCCCCTTTCCCC/TTCAGACTTAGGAATGTTGCTTCCCACGTAGTGTCGTGTTGGTATTGGACCCTCGCAT/TCAACTGCCTGGTGATAAAACACGACACTACGTGGGAATCTTACTATGGCGGCTCTTC/TTATCACCAGGCAGTTGACAGGTGTAGCAAGCTGTAATAGATGCGAGGGTCCAATACC/AACATTCCTAAGTCTGAAACATTACAGCTTGCTACACCGAGAAGAGCCGCCATAGTAATTTTTTAATATTTATAATGGACCCCCTTTCCCC; assay: fluorescence enhancement; conditions: 2 mM MgCl2; TAE pH 5; 0.4 μM FNA, 0.4 μM ThT; over 20-fold fluorescence increase versus pH 8
[8] = system: 3'-GGGA on C4T3C5 (DNA, i motif) CCCCTTTCCCCCGGGA; assay: fluorescence enhancement; conditions: 2 mM MgCl2; TAE pH 5, 22°C; 1 μM DNA, 3 μM ThT
[9] = system: TiM9 (TGGAC5T3C4) (DNA, i motif) TGGACCCCCTTTCCCC; assay: fluorescence titration; conditions: 2 mM MgCl2; TAE pH 5, 22°C; 3 μM ThT titrated with DNA
[10] = system: 3'-GGGA on C3T3C4 (DNA, i motif) CCCTTTCCCCGGGA; assay: fluorescence enhancement; conditions: 2 mM MgCl2; TAE pH 5, 22°C; 1 μM DNA, 3 μM ThT
[11] = system: 5'-AGGA overhang on iM7 (DNA, i motif) AGGACCCCTTTCCC; assay: fluorescence enhancement; conditions: 2 mM MgCl2; TAE pH 5, 22°C; 1 μM DNA, 3 μM ThT
[12] = system: 5'-AGGA overhang on iM9 (DNA, i motif) AGGACCCCCTTTCCCC; assay: fluorescence enhancement; conditions: 2 mM MgCl2; TAE pH 5, 22°C; 1 μM DNA, 3 μM ThT
[13] = system: iM7 (C4T3C3) (DNA, i motif) CCCCTTTCCC; assay: CD melting at 290 nm; conditions: 2 mM MgCl2; TAE pH 5; 50 μM DNA, 150 μM ThT; Tm stated unchanged
[14] = system: 5'-AGAA overhang on iM7 (DNA, i motif) AGAACCCCTTTCCC; assay: fluorescence enhancement; conditions: 2 mM MgCl2; TAE pH 5; 1 μM DNA, 3 μM DSMB
[15] = system: 5'-AGCA overhang on iM7 (DNA, i motif) AGCACCCCTTTCCC; assay: fluorescence enhancement; conditions: 2 mM MgCl2; TAE pH 5; 1 μM DNA, 3 μM THIA

- binding [1]: weak
- binding [2]: yes
- binding [3]: yes
- Kd [4]: ~ 3.9 μM
- binding [5]: weak
- binding [6]: weak
- binding [7]: yes
- binding [8]: yes
- Kd [9]: ~ 5.7 μM
- binding [10]: yes
- binding [11]: yes
- binding [12]: yes
- binding [13]: weak
SMILES: Cc1ccc2c(c1)sc(-c1ccc(N(C)C)cc1)[n+]2C

- binding [14]: yes
SMILES: CN(C)c1ccc(/C=C/c2sc3ccccc3[n+]2C)cc1

- binding [15]: yes
SMILES: CCN1/C(=C/c2sc3ccccc3[n+]2CC)Sc2ccccc21
